# According to patent US9090593B2, “Bicyclic compounds as Pim inhibitors” (AMGEN INC., priority 2010, dated 2015):
# Like-named read-outs stand apart in the source and are kept apart here.
# How the values were obtained:
# [1] = biological target: T1, Pim-2 stably transfected into the U2OS human osteogenic sarcoma line (Homo sapiens, UniProt Q9P1W9); assay: Pim cell assay, phospho-BAD normalized against total BAD, U2OS stably transfected with Pim-2; format: cell-based
# T1 construct: expressed in transfected cells; host or cells: U2OS human osteogenic sarcoma line
# T1 sequence (Q9P1W9 whole entry): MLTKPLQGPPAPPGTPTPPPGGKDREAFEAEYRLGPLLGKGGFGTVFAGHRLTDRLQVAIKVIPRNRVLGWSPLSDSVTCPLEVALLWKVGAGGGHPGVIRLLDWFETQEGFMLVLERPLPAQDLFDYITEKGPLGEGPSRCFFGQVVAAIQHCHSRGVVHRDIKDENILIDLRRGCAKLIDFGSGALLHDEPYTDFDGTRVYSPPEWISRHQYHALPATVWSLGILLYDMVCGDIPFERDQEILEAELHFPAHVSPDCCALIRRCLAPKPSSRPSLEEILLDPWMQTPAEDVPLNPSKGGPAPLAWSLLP
# Method: (§1) The cell lines used in the assay were generated by the stable transfection of either Pim-1 or Pim-2 into the U2OS human osteogenic sarcoma line. The assay for determination of the Pim activity in the engineered U2OS cell lines measures levels of phospho-BAD normalized against total BAD protein levels. It was conducted as follows:
# (§2) The adherent cells were dissociated from the flasks using non-enzymatic cell dissociation solution (Sigma # C5914). […] The cells were then incubated overnight at 37° C., 5% CO2.
# (§3) In addition to the 10-point dosing curve of the test compound, DMSO alone was run as the high control.
# (§4) This dilution in DMSO was then diluted again into cell growth medium. Aliquots (12 uL) of the compound diluted in growth medium were then transferred to the appropriate wells of the 96-well plates containing cells to yield a final DMSO concentration of 0.3%.
# (§5) The cell plates containing lysis buffer were then immediately stored at −70° C.
# (§6) These prepared lysates were then assayed for phospho and total BAD according to the manufacturer's protocols (Meso Scale Diagnostics, Cat# K15103C-3 & # K15103D-3). The plates were read on the MSD Sector Imager 6000, and results were calculated according to the assay protocols ((% Phosphoprotein=((2×Phospho signal)/(Phospho signal+Total signal))×100)).
# [2] = biological target: T2, Pim-1 stably transfected into the U2OS human osteogenic sarcoma line (Homo sapiens, UniProt P11309); assay: Pim cell assay, phospho-BAD normalized against total BAD, U2OS stably transfected with Pim-1; format: cell-based
# T2 construct: expressed in transfected cells; host or cells: U2OS human osteogenic sarcoma line
# T2 sequence (P11309 whole entry): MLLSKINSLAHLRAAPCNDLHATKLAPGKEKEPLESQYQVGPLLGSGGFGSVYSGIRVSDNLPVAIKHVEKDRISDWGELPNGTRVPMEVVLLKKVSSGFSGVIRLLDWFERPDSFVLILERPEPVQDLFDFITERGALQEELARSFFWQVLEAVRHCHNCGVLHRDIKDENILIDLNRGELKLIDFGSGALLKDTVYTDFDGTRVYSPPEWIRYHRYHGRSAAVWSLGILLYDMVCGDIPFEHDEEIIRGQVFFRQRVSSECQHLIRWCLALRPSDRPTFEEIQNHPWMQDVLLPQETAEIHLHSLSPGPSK
# Method: as §1, §2, §3, §4, §5, §6
# [3] = biological target: T3, full length recombinant Pim-2 protein (Homo sapiens, UniProt Q9P1W9); assay: Pim-2 enzyme assay (HTRF, phosphorylation of biotinylated-BAD (S112) peptide); format: biochemical; settings: read-out: Pim2_IC50
# T3 construct: by full length recombinant Pim-1, Pim-2, or Pim-3 protein; hexahistidine tag followed by a thrombin cleavage site (N); made in house; host or cells: Sf9 (baculovirus) or E. coli (pET28)
# T3 sequence (Q9P1W9 whole entry): as the sequence (Q9P1W9 whole entry) above
# Outline: (§7)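 Full-length His-tagged Pim-1 or Pim-2 (Sf9 or E. coli expressed, purified) phosphorylated biotinylated BAD (S112) peptide in 60 mM Hepes pH 7.0, 0.05% BSA, 2 mM DTT. Reaction stopped with 3 mM EDTA; phospho-BAD read by HTRF with Eu anti-phospho-BAD antibody and streptavidin-APC. IC50 from percent of control by 4-parameter logistic fit.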
# [4] = biological target: T4, full length recombinant Pim-1 protein (Homo sapiens, UniProt P11309); assay: Pim-1 enzyme assay (HTRF, phosphorylation of biotinylated-BAD (S112) peptide); format: biochemical; settings: read-out: Pim_1_IC50
# T4 construct: by full length recombinant Pim-1, Pim-2, or Pim-3 protein; hexahistidine tag followed by a thrombin cleavage site (N); made in house; host or cells: Sf9 (baculovirus) or E. coli (pET28)
# T4 sequence (P11309 whole entry): as the sequence (P11309 whole entry) above
# Outline: as §7
# [5] = U2OS stably transfected with Pim-2, phospho-BAD normalized against total BAD, 29 min incubation, read-out: Pim2_Cell_IC50_
# [6] = U2OS stably transfected with Pim-1, phospho-BAD normalized against total BAD, 29 min incubation, read-out: Pim1_Cell_IC50_
# [7] = U2OS cells stably transfected with Pim-2, phospho-BAD, high dose […], read-out: Pim2_Cell_IC50
# [8] = U2OS cells stably transfected with Pim-1, phospho-BAD, high dose […], read-out: Pim1_Cell_IC50
SMILES,"IC50 [1, 5] [nM]","IC50 [2, 6] [nM]",IC50 [3] [nM],IC50 [4] [nM],"IC50 [1, 7] [nM]","IC50 [2, 8] [nM]","IC50 ([3]; enzyme assay, Pim-2) [nM]"
"c1cc2[nH]nc(-c3cncc(N[C@@H]4CCCNC4)n3)c2cc1-c1cncc(C2CC2)n1 [Example 243, 6-(5-(6-cyclopropyl-2-pyrazinyl)-1H-indazol-3-yl)-N-((3R)-3-piperidinyl)-2-pyrazinamine]",5590,99,8,–,–,–,–
CC(C)NC(=O)c1ccc(F)c(-c2ccc3[nH]nc(-c4cncc(N[C@@H]5CCCNC5)n4)c3c2)c1 [Example 362],4150,864,7,3,–,–,–
COc1cc(-c2n[nH]c3ccc(-c4c(F)cccc4F)cc23)nc(N2CCC(N)CC2)n1 [Example 506],> 31600,3740,33,15,–,–,–
"c1cc2[nH]cc(-c3cncc(C4CC4)n3)c2cc1-c1cncc(C2CC2)n1 [Example 245, 3,5-bis(6-cyclopropyl-2-pyrazinyl)-1H-indole]",> 31600,3640,345,28,–,–,–
NC1CCN(c2cc(O)nc(-c3c[nH]c4ccc(-c5c(F)cccc5F)cc34)n2)CC1 [Example 566],> 31600,5590,23,4,–,–,–
NC1CCN(c2cncc(-c3n[nH]c4ccc(-c5cncc(NC6CC6)n5)cc34)n2)CC1 [Example 509],4230,51,6,–,–,–,–
CC(C)Nc1nc(-c2n[nH]c3ccc(-c4c(F)cccc4F)cc23)cc(=O)[nH]1 [Example 524],> 31600,1010,18,5,–,–,–
CC(C)Oc1ccc(-c2ccc3[nH]cc(-c4cncc(O[C@@H]5CCCNC5)n4)c3c2)cc1 [Example 324],> 31600,957,34,4,–,–,–
"c1cc2[nH]nc(-c3cncc(NC4CCNCC4)n3)c2cc1-c1cncc(C2CC2)n1 [Example 369, 6-(5-(6-cyclopropyl-2-pyrazinyl)-1H-indazol-3-yl)-N-4-piperidinyl-2-pyrazinamine]",3700,83,1,–,–,–,–
c1cc2[nH]cc(-c3cncc(O[C@@H]4CCCNC4)n3)c2cc1-c1cncc(N2CCCC2)n1 [Example 302],–,995,189,9,–,–,–
NC1CCN(c2cncc(-c3n[nH]c4ccc(-c5cc6[nH]ccc6cn5)cc34)n2)CC1 [Example 504],–,7560,127,5,–,–,–
"O=c1cc(-c2c[nH]c3ccc(-c4c(F)cccc4F)cc23)nc(N[C@@H]2CCCNC2)[nH]1 [Example 279, (R)-6-(5-(2,6-difluorophenyl)-1H-indol-3-yl)-2-(piperidin-3-ylamino)pyrimidin-4(3H)-one]",> 31600,2400,–,1,–,–,–
COc1ccc(-c2ccc3[nH]cc(-c4cncc(O[C@@H]5CCCNC5)n4)c3c2)cn1 [Example 310],–,295,41,6,–,–,–
c1cc(OCC2CC2)ncc1-c1ccc2[nH]cc(-c3cncc(O[C@@H]4CCCNC4)n3)c2c1 [Example 323],–,1310,67,8,–,–,–
COc1cccc(-c2ccc3[nH]cc(-c4cncc(O[C@@H]5CCCNC5)n4)c3c2)c1 [Example 320],–,592,30,6,–,–,–
"CC(C)Oc1cncc(-c2ccc3[nH]nc(-c4cncc(N5CCC(N)CC5)n4)c3c2)n1 [Example 5, 1-(6-(5-(6-isopropoxypyrazin-2-yl)-1H-indazol-3-yl)pyrazin-2-yl)piperidin-4-amine]",–,–,–,–,5440,45,16
COC(=O)c1ccc2[nH]nc(-c3cncc(NC4CCNCC4)n3)c2c1 [Example 559],8120,202,1,–,–,–,–

SMILES,"IC50 [1, 5] [nM]","IC50 [2, 6] [nM]",IC50 [3] [nM],IC50 [4] [nM],"IC50 [1, 7] [nM]","IC50 [2, 8] [nM]","IC50 ([3]; enzyme assay, Pim-2) [nM]"
CC(C)OC(=O)c1ccc2[nH]nc(-c3cncc(NC4CCNCC4)n3)c2c1 [Example 560],4780,394,5,–,–,–,–
c1cc(OC2CCC2)nc(-c2ccc3[nH]cc(-c4cncc(O[C@@H]5CCCNC5)n4)c3c2)c1 [Example 301],–,2540,122,13,–,–,–
Cc1ccn(-c2cccc(-c3ccc4[nH]cc(-c5cncc(O[C@@H]6CCCNC6)n5)c4c3)n2)n1 [Example 307],–,1600,114,6,–,–,–
"NC1CCN(c2cncc(-c3n[nH]c4ccc(-c5cncc(C6CC6)n5)cc34)n2)CC1 [Example 503, 1-(6-(5-(6-cyclopropyl-2-pyrazinyl)-1H-indazol-3-yl)-2-pyrazinyl)-4-piperidinamine]",3680,76,2,–,–,–,–
Cc1nccn1-c1cccc(-c2ccc3[nH]cc(-c4cncc(O[C@@H]5CCCNC5)n4)c3c2)n1 [Example 305],–,754,127,7,–,–,–
"CC(C)n1cc(-c2ccc3[nH]cc(-c4cncc(O[C@@H]5CCCNC5)n4)c3c2)cn1 [Example 308, 5-(1-(1-methylethyl)-1H-pyrazol-4-yl)-3-(6-((3R)-3-piperidinyloxy)-2-pyrazinyl)-1H-indole]",–,160,76,8,–,–,–
"Fc1cccc(F)c1-c1ccc2[nH]nc(-c3cncc(SC4CCCNC4)n3)c2c1 (single isomer, unassigned) [Example 414]",–,1540,60,7,–,–,–
CC1(C)CC1c1ccc2[nH]cc(-c3cncc(O[C@@H]4CCCNC4)n3)c2c1 (stereo partly shown) [Example 312],–,1310,31,9,–,–,–
"NC1CCN(c2cncc(-c3n[nH]c4ccc(-c5cncc(C6CC6)n5)cc34)n2)CC1 [Example 109, 1-(6-(5-(6-cyclopropyl-2-pyrazinyl)-1H-indazol-3-yl)-2-pyrazinyl)-4-piperidinamine]",–,–,–,–,1730,–,2
COc1cc(N2CCC(N)CC2)nc(-c2n[nH]c3ccc(-c4c(F)cccc4F)cc23)n1 [Example 472],–,–,617,112,–,–,–
Nc1cncc(-c2ccc3[nH]nc(-c4cncc(N5CCC(N)CC5)n4)c3c2)n1 [Example 508],> 31600,1370,1,–,–,–,–
COc1cncc(-c2n[nH]c3ccc(-c4nccc(N5CCOC[C@@H]5C)n4)cc23)n1 [Example 376],–,–,275,21,–,–,–
"Nc1cnnc(-c2ccc3[nH]nc(-c4cncc(N5CCC(N)CC5)n4)c3c2)c1 [Example 104, 6-(3-(6-(4-amino-1-piperidinyl)-2-pyrazinyl)-1H-indazol-5-yl)-4-pyridazinamine]",–,–,–,–,> 31600,1920,1
c1cc2[nH]cc(-c3cncc(O[C@@H]4CCCNC4)n3)c2cc1-c1cncc(OC2CCCC2)n1 [Example 318],–,–,347,35,–,–,–
CC1(Oc2cncc(-c3n[nH]c4ccc(-c5c(F)cccc5F)cc34)n2)CCCNC1 (stereo not shown) [Example 417],–,1480,335,15,–,–,–
COc1c(C)cc(-c2ccc3[nH]cc(-c4cncc(O[C@@H]5CCCNC5)n4)c3c2)cc1C [Example 331],–,1280,111,8,–,–,–
c1cc2[nH]nc(-c3cncc(O[C@@H]4CNCCC45CC5)n3)c2cc1N1CCOCC1 [Example 399],–,–,> 1000,> 1000,–,–,–
